Read-outs that look alike come from different tables or passages of the source. Starred links: 1 amine or outer side, 2 acyl side, 3 side chain; linkers in the order of their positions; H or OH if unused. Positions of bridges follow the written chain, without caps; N, C: chain ends. Non-standard residues stand in square brackets, D forms with d. Residues, ends and D or L forms follow the SMILES beside them. *: point of attachment. Orn(4R-OH,5R-OH) = O=C([C@H](C[C@@H](O)[C@@H](O)N[*:3])N[*:1])[*:2]; hTyr(3S-OH,4S-OH) = N[C@H](C(=O)O)[C@H](O)[C@@H](O)c1ccc(O)cc1; Benzoyl(4-dodecyloxy) = CCCCCCCCCCCCOc1ccc(C(=O)*)cc1; Benzoyl(4-OC10H21) = CCCCCCCCCCOc1ccc(C(=O)*)cc1; Pro(3S-OH,4S-Me) = C[C@H]1CN[C@H](C(=O)O)[C@H]1O; X28 = CCCCCCCC[S+]([O-])c1ccc(C(=O)*)cc1; X20 = CCCCCCCCCCCCCCOc1ccc(C(=O)*)cc1; X24 = CCCCCCCCCCCCCCOc1cccc(C(=O)*)c1; X3 = CCCCCCCCCCCCCCSc1ccc(C(=O)*)cc1; X1 = CCCCCCCCCCCCSc1ccc(C(=O)*)cc1; Hyp = O=C(O)[C@@H]1C[C@@H](O)CN1; X15 = CCCCCCCCOc1cccc(CC(=O)*)c1; X6 = CCCCCCCCCCSc1ccc(C(=O)*)cc1; X13 = CCCCCCCCOc1cccc(C(=O)*)c1; X7 = CCCCCCCCSc1ccc(C(=O)*)cc1
Experiments:
[1] = in vivo; conditions: mouse, po, 416 mg/kg
[2] = system: Candida albicans A-26; assay: Therapeutic activity against Candida albicans A-26 infection in mice, ED50; assay type: in vivo; conditions: doses 0, 4 and 24 hours post infection, increase in survival time vs control, Reed-Muench
Description: (§1) The results of in vivo tests to evaluate the effectiveness of the compounds of Examples 3 and 4 against an infection caused by Candida albicans A-26 in mice are given in Table 13, where activity is measured by the ED50 value (the dose in mg/kg. required to cure 50% of the test animals). In a separate test, the results of which are also summarized in Table 13, activity is indicated by the lowest dose at which a significant anti-fungal effect is observed. In this test, groups of male albino mice (specific pathogen free), weighing 18 to 20 grams, are infected intravenously with Candida albicans A-26. The animals are X-irradiated 24 hours prior to infection at about 50 roentgens per minute for 8 minutes (400 total dose) to reduce immune responses to the infecting organism. At 0, 4, and 24 hours post infection each group of mice is given graded doses subcutaneously of the test compound as a suspension in 33% polyethylene glycol (PEG)-water. The day of death for each animal is recorded.
(§2) *Dosage Schedules: A. = 40, 20, 15 and 10 mg/kg; Dosages given 0, 4, and
(§3) 24 hours post injection as suspension of test compound in 30% PEGH2
(§4) O. Number of mice receiving test compounds at each dosage level: 6 mice
(§5) per group. Number of mice in control (untreated) group: 10 mice per group
**As measured by increase in survival time of treated animals versus
control, calculated by method of Reed v Mueuch, American J. Hygiene, 27,

[3] = system: Candida albicans A-26; assay: Therapeutic activity against Candida albicans A-26 infection in X-irradiated mice, lowest active dose; assay type: in vivo; conditions: A26, light or radiation study, sc
Description: as §1, §2, §3, §4, §5

[4] = Candida albicans, A26, sc, read-out: ED50
[5] = X-irradiated mice, subcutaneous at 0, 4 and 24 hours post infection, survival, read-out: Lowest Active Dose
[6] = read-out: Lowest Active Dose, X-irradiated mice, subcutaneous at 0, 4 and 24 hours post infection, survival

| SMILES | Cmax [1] | ED50 [2, 4] | minimal effective dose [3, 5] | also measured |
| --- | --- | --- | --- | --- |
| CCCCCCCCCCCCSc1ccc(C(=O)N[C@H]2C[C@@H](O)[C@@H](O)NC(=O)[C@@H]3[C@@H](O)[C@@H](C)CN3C(=O)[C@H]([C@@H](C)O)NC(=O)[C@H]([C@H](O)[C@@H](O)c3ccc(O)cc3)NC(=O)[C@@H]3C[C@@H](O)CN3C(=O)[C@H]([C@@H](C)O)NC2=O)cc1 [drawing 187] (X1-[Orn(4R-OH,5R-OH)]T[Hyp][hTyr(3S-OH,4S-OH)]T[Pro(3S-OH,4S-Me)]; lactam 1-C) | 30 µg/mL | – | – | – |
| CCCCCCCCCCCCOc1ccc(C(=O)N[C@H]2C[C@@H](O)[C@@H](O)NC(=O)[C@@H]3[C@@H](O)[C@@H](C)CN3C(=O)[C@H]([C@@H](C)O)NC(=O)[C@H]([C@H](O)[C@@H](O)c3ccc(O)cc3)NC(=O)[C@@H]3C[C@@H](O)CN3C(=O)[C@H]([C@@H](C)O)NC2=O)cc1 [drawing 183] ({Benzoyl(4-dodecyloxy)}-[Orn(4R-OH,5R-OH)]T[Hyp][hTyr(3S-OH,4S-OH)]T[Pro(3S-OH,4S-Me)]; lactam 1-C) | 5 µg/mL | – | – | – |
| CCCCCCCCSc1ccc(C(=O)N[C@H]2C[C@@H](O)[C@@H](O)NC(=O)[C@@H]3[C@@H](O)[C@@H](C)CN3C(=O)[C@H]([C@@H](C)O)NC(=O)[C@H]([C@H](O)[C@@H](O)c3ccc(O)cc3)NC(=O)[C@@H]3C[C@@H](O)CN3C(=O)[C@H]([C@@H](C)O)NC2=O)cc1 [drawing 185] (X7-[Orn(4R-OH,5R-OH)]T[Hyp][hTyr(3S-OH,4S-OH)]T[Pro(3S-OH,4S-Me)]; lactam 1-C) | < 0.1 µg/mL | – | – | – |
| CCCCCCCCCCCCCCSc1ccc(C(=O)N[C@H]2C[C@@H](O)[C@@H](O)NC(=O)[C@@H]3[C@@H](O)[C@@H](C)CN3C(=O)[C@H]([C@@H](C)O)NC(=O)[C@H]([C@H](O)[C@@H](O)c3ccc(O)cc3)NC(=O)[C@@H]3C[C@@H](O)CN3C(=O)[C@H]([C@@H](C)O)NC2=O)cc1 [drawing 188] (X3-[Orn(4R-OH,5R-OH)]T[Hyp][hTyr(3S-OH,4S-OH)]T[Pro(3S-OH,4S-Me)]; lactam 1-C) | 230 µg/mL | – | – | – |
| CCCCCCCCCCOc1ccc(C(=O)N[C@H]2C[C@@H](O)[C@@H](O)NC(=O)[C@@H]3[C@@H](O)[C@@H](C)CN3C(=O)[C@H]([C@@H](C)O)NC(=O)[C@H]([C@H](O)[C@@H](O)c3ccc(O)cc3)NC(=O)[C@@H]3C[C@@H](O)CN3C(=O)[C@H]([C@@H](C)O)NC2=O)cc1 [drawing 182] ({Benzoyl(4-OC10H21)}-[Orn(4R-OH,5R-OH)]T[Hyp][hTyr(3S-OH,4S-OH)]T[Pro(3S-OH,4S-Me)]; lactam 1-C) | < 0.1 µg/mL | – | – | – |
| CCCCCCCCCCCCCCOc1ccc(C(=O)N[C@H]2C[C@@H](O)[C@@H](O)NC(=O)[C@@H]3[C@@H](O)[C@@H](C)CN3C(=O)[C@H]([C@@H](C)O)NC(=O)[C@H]([C@H](O)[C@@H](O)c3ccc(O)cc3)NC(=O)[C@@H]3C[C@@H](O)CN3C(=O)[C@H]([C@@H](C)O)NC2=O)cc1 [drawing 184] (X20-[Orn(4R-OH,5R-OH)]T[Hyp][hTyr(3S-OH,4S-OH)]T[Pro(3S-OH,4S-Me)]; lactam 1-C) | 5 µg/mL | – | – | – |
| CCCCCCCCCCSc1ccc(C(=O)N[C@H]2C[C@@H](O)[C@@H](O)NC(=O)[C@@H]3[C@@H](O)[C@@H](C)CN3C(=O)[C@H]([C@@H](C)O)NC(=O)[C@H]([C@H](O)[C@@H](O)c3ccc(O)cc3)NC(=O)[C@@H]3C[C@@H](O)CN3C(=O)[C@H]([C@@H](C)O)NC2=O)cc1 [drawing 156] (X6-[Orn(4R-OH,5R-OH)]T[Hyp][hTyr(3S-OH,4S-OH)]T[Pro(3S-OH,4S-Me)]; lactam 1-C) | – | 28 mg/kg | 20 mg/kg | – |
| CCCCCCCCCCCCCCOc1cccc(C(=O)N[C@H]2C[C@@H](O)[C@@H](O)NC(=O)[C@@H]3[C@@H](O)[C@@H](C)CN3C(=O)[C@H]([C@@H](C)O)NC(=O)[C@H]([C@H](O)[C@@H](O)c3ccc(O)cc3)NC(=O)[C@@H]3C[C@@H](O)CN3C(=O)[C@H]([C@@H](C)O)NC2=O)c1 (X24-[Orn(4R-OH,5R-OH)]T[Hyp][hTyr(3S-OH,4S-OH)]T[Pro(3S-OH,4S-Me)]; lactam 1-C) | – | > 50 mg/kg | > 40 mg/kg | – |
| CCCCCCCCOc1cccc(C(=O)N[C@H]2C[C@@H](O)[C@@H](O)NC(=O)[C@@H]3[C@@H](O)[C@@H](C)CN3C(=O)[C@H]([C@@H](C)O)NC(=O)[C@H]([C@H](O)[C@@H](O)c3ccc(O)cc3)NC(=O)[C@@H]3C[C@@H](O)CN3C(=O)[C@H]([C@@H](C)O)NC2=O)c1 [drawing 163] (X13-[Orn(4R-OH,5R-OH)]T[Hyp][hTyr(3S-OH,4S-OH)]T[Pro(3S-OH,4S-Me)]; lactam 1-C) | – | > 50 mg/kg | 40 mg/kg | – |
| CCCCCCCCCCCCCCSc1ccc(C(=O)N[C@H]2C[C@@H](O)[C@@H](O)NC(=O)[C@@H]3[C@@H](O)[C@@H](C)CN3C(=O)[C@H]([C@@H](C)O)NC(=O)[C@H]([C@H](O)[C@@H](O)c3ccc(O)cc3)NC(=O)[C@@H]3C[C@@H](O)CN3C(=O)[C@H]([C@@H](C)O)NC2=O)cc1 [drawing 158] (X3-[Orn(4R-OH,5R-OH)]T[Hyp][hTyr(3S-OH,4S-OH)]T[Pro(3S-OH,4S-Me)]; lactam 1-C) | – | 20 mg/kg | 2.5 mg/kg | – |
| CCCCCCCCCCCCOc1ccc(C(=O)N[C@H]2C[C@@H](O)[C@@H](O)NC(=O)[C@@H]3[C@@H](O)[C@@H](C)CN3C(=O)[C@H]([C@@H](C)O)NC(=O)[C@H]([C@H](O)[C@@H](O)c3ccc(O)cc3)NC(=O)[C@@H]3C[C@@H](O)CN3C(=O)[C@H]([C@@H](C)O)NC2=O)cc1 [drawing 153] ({Benzoyl(4-dodecyloxy)}-[Orn(4R-OH,5R-OH)]T[Hyp][hTyr(3S-OH,4S-OH)]T[Pro(3S-OH,4S-Me)]; lactam 1-C) | – | < 5 mg/kg | 2.5 mg/kg | ED50 [2]: 3.9 mg/kg; minimal effective dose [3, 6]: ≤ 5 mg/kg |
| CCCCCCCC[S+]([O-])c1ccc(C(=O)N[C@H]2C[C@@H](O)[C@@H](O)NC(=O)[C@@H]3[C@@H](O)[C@@H](C)CN3C(=O)[C@H]([C@@H](C)O)NC(=O)[C@H]([C@H](O)[C@@H](O)c3ccc(O)cc3)NC(=O)[C@@H]3C[C@@H](O)CN3C(=O)[C@H]([C@@H](C)O)NC2=O)cc1 (stereo partly drawn) (X28-[Orn(4R-OH,5R-OH)]T[Hyp][hTyr(3S-OH,4S-OH)]T[Pro(3S-OH,4S-Me)]; lactam 1-C) | – | 56.6 mg/kg | > 40 mg/kg | – |
| CCCCCCCCCCOc1ccc(C(=O)N[C@H]2C[C@@H](O)[C@@H](O)NC(=O)[C@@H]3[C@@H](O)[C@@H](C)CN3C(=O)[C@H]([C@@H](C)O)NC(=O)[C@H]([C@H](O)[C@@H](O)c3ccc(O)cc3)NC(=O)[C@@H]3C[C@@H](O)CN3C(=O)[C@H]([C@@H](C)O)NC2=O)cc1 [drawing 152] ({Benzoyl(4-OC10H21)}-[Orn(4R-OH,5R-OH)]T[Hyp][hTyr(3S-OH,4S-OH)]T[Pro(3S-OH,4S-Me)]; lactam 1-C) | – | 8 mg/kg | – | minimal effective dose [3, 6]: 5 mg/kg |
| CCCCCCCCOc1cccc(CC(=O)N[C@H]2C[C@@H](O)[C@@H](O)NC(=O)[C@@H]3[C@@H](O)[C@@H](C)CN3C(=O)[C@H]([C@@H](C)O)NC(=O)[C@H]([C@H](O)[C@@H](O)c3ccc(O)cc3)NC(=O)[C@@H]3C[C@@H](O)CN3C(=O)[C@H]([C@@H](C)O)NC2=O)c1 [drawing 177] (X15-[Orn(4R-OH,5R-OH)]T[Hyp][hTyr(3S-OH,4S-OH)]T[Pro(3S-OH,4S-Me)]; lactam 1-C) | – | > 40 mg/kg | – | minimal effective dose [3, 6]: 10 mg/kg |

Source: patent US4293489A, “Derivatives of A-30912A nucleus” (Eli Lilly and Company, priority 1980, dated 1981)
